From ChEMBL document CHEMBL4507266, “Data for DCP probe BAY-784” (2021)

Assays:
[1] = molecular target: Dual specificity tyrosine-phosphorylation-regulated kinase 1B (Homo sapiens) (UniProt Q9Y463); conditions: Compound concentration 1000.0 nM
[2] = molecular target: Serine/threonine-protein kinase OSR1 (Homo sapiens) (UniProt O95747); conditions: Compound concentration 1000.0 nM
[3] = molecular target: Serine/threonine-protein kinase Sgk3 (Homo sapiens) (UniProt Q96BR1); conditions: Compound concentration 1000.0 nM
[4] = molecular target: Serine/threonine-protein kinase BRSK1 (Homo sapiens) (UniProt Q8TDC3); conditions: Compound concentration 1000.0 nM
[5] = molecular target: Tyrosine-protein kinase HCK (Homo sapiens) (UniProt P08631); conditions: Compound concentration 1000.0 nM
[6] = molecular target: Hepatocyte growth factor receptor (Homo sapiens) (UniProt P08581); conditions: Compound concentration 1000.0 nM
[7] = molecular target: Calcium-dependent protein kinase 1 (Plasmodium falciparum) (UniProt P62344); conditions: Compound concentration 1000.0 nM
[8] = molecular target: Fibroblast growth factor receptor 2 (Homo sapiens) (UniProt P21802); conditions: Compound concentration 1000.0 nM
[9] = molecular target: Activin receptor type-1B (Homo sapiens) (UniProt P36896); conditions: Compound concentration 1000.0 nM
[10] = molecular target: Dual serine/threonine and tyrosine protein kinase (Homo sapiens) (UniProt Q6XUX3); conditions: Compound concentration 1000.0 nM
[11] = molecular target: Sodium-dependent serotonin transporter (Homo sapiens) (UniProt P31645); conditions: Compound concentration 10.0 uM
[12] = molecular target: Cyclin-G-associated kinase (Homo sapiens) (UniProt O14976); conditions: Compound concentration 1000.0 nM
[13] = molecular target: Tyrosine-protein kinase SYK (Homo sapiens) (UniProt P43405); conditions: Compound concentration 1000.0 nM
[14] = molecular target: Mitogen-activated protein kinase kinase kinase 2 (Homo sapiens) (UniProt Q9Y2U5); conditions: Compound concentration 1000.0 nM
[15] = molecular target: T1, D(4) dopamine receptor (Homo sapiens) (UniProt P21917); conditions: Compound concentration 10.0 uM
T1 sequence (whole entry): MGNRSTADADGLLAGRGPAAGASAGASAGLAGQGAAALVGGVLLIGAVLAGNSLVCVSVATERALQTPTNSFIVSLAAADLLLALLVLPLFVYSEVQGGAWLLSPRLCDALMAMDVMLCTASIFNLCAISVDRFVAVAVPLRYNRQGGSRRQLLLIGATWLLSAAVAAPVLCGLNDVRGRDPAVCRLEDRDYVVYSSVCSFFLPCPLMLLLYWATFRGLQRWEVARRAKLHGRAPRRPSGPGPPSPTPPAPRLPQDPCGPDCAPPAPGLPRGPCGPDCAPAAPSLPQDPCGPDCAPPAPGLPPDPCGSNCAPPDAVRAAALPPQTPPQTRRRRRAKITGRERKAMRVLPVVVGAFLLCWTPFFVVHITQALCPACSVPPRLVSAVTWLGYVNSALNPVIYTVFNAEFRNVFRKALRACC

[16] = molecular target: Receptor tyrosine-protein kinase erbB-2 (Homo sapiens) (UniProt P04626); conditions: Compound concentration 1000.0 nM
[17] = test system: Proto-oncogene tyrosine-protein kinase receptor Ret (Homo sapiens), P07949 [V804L]; conditions: Compound concentration 1000.0 nM
[18] = test system: Epidermal growth factor receptor (Homo sapiens), P00533 [T790M]; conditions: Compound concentration 1000.0 nM
[19] = test system: Proto-oncogene tyrosine-protein kinase receptor Ret (Homo sapiens), P07949 [M918T]; conditions: Compound concentration 1000.0 nM
[20] = molecular target: Ribosomal protein S6 kinase alpha-4 (Homo sapiens) (UniProt O75676); conditions: Compound concentration 1000.0 nM
[21] = molecular target: Serine/threonine-protein kinase 35 (Homo sapiens) (UniProt Q8TDR2); conditions: Compound concentration 1000.0 nM
[22] = molecular target: Histamine H1 receptor (Homo sapiens) (UniProt P35367); conditions: Compound concentration 10.0 uM
[23] = molecular target: MAP kinase-activated protein kinase 2 (Homo sapiens) (UniProt P49137); conditions: Compound concentration 1000.0 nM
[24] = molecular target: Epidermal growth factor receptor (Homo sapiens) (UniProt P00533); conditions: Compound concentration 1000.0 nM
[25] = molecular target: Serine/threonine-protein kinase PAK 2 (Homo sapiens) (UniProt Q13177); conditions: Compound concentration 1000.0 nM
[26] = molecular target: Serine/threonine-protein kinase MRCK gamma (Homo sapiens) (UniProt Q6DT37); conditions: Compound concentration 1000.0 nM
[27] = test system: Phosphatidylinositol 4,5-bisphosphate 3-kinase catalytic subunit alpha isoform (Homo sapiens), P42336 [H1047Y]; conditions: Compound concentration 1000.0 nM
[28] = test system: Receptor-type tyrosine-protein kinase FLT3 (Homo sapiens), P36888 [UNDEFINED MUTATION]; conditions: Compound concentration 1000.0 nM
[29] = molecular target: cAMP-dependent protein kinase catalytic subunit alpha (Homo sapiens) (UniProt P17612); conditions: Compound concentration 1000.0 nM
[30] = molecular target: Calcium/calmodulin-dependent protein kinase type II subunit alpha (Homo sapiens) (UniProt Q9UQM7); conditions: Compound concentration 1000.0 nM
[31] = molecular target: 5'-AMP-activated protein kinase catalytic subunit alpha-1 (Homo sapiens) (UniProt Q13131); conditions: Compound concentration 1000.0 nM
[32] = molecular target: Serine/threonine-protein kinase Nek5 (Homo sapiens) (UniProt Q6P3R8); conditions: Compound concentration 1000.0 nM
[33] = molecular target: Receptor-type tyrosine-protein kinase FLT3 (Homo sapiens) (UniProt P36888); conditions: Compound concentration 1000.0 nM
[34] = molecular target: Testis-specific serine/threonine-protein kinase 1 (Homo sapiens) (UniProt Q9BXA7); conditions: Compound concentration 1000.0 nM
[35] = test system: Receptor-type tyrosine-protein kinase FLT3 (Homo sapiens), P36888 [UNDEFINED MUTATION]; conditions: Compound concentration 1000.0 nM; remark: listed apart in the source
[36] = molecular target: RAC-beta serine/threonine-protein kinase (Homo sapiens) (UniProt P31751); conditions: Compound concentration 1000.0 nM
[37] = molecular target: Ephrin type-A receptor 3 (Homo sapiens) (UniProt P29320); conditions: Compound concentration 1000.0 nM
[38] = molecular target: Ephrin type-A receptor 1 (Homo sapiens) (UniProt P21709); conditions: Compound concentration 1000.0 nM
[39] = test system: Receptor-type tyrosine-protein kinase FLT3 (Homo sapiens), P36888 [UNDEFINED MUTATION]; conditions: Compound concentration 1000.0 nM; remark: listed apart in the source

Chain of Receptor-type tyrosine-protein kinase FLT3 (Homo sapiens), P36888 [UNDEFINED MUTATION] (P36888 whole entry, looked up, change not shown): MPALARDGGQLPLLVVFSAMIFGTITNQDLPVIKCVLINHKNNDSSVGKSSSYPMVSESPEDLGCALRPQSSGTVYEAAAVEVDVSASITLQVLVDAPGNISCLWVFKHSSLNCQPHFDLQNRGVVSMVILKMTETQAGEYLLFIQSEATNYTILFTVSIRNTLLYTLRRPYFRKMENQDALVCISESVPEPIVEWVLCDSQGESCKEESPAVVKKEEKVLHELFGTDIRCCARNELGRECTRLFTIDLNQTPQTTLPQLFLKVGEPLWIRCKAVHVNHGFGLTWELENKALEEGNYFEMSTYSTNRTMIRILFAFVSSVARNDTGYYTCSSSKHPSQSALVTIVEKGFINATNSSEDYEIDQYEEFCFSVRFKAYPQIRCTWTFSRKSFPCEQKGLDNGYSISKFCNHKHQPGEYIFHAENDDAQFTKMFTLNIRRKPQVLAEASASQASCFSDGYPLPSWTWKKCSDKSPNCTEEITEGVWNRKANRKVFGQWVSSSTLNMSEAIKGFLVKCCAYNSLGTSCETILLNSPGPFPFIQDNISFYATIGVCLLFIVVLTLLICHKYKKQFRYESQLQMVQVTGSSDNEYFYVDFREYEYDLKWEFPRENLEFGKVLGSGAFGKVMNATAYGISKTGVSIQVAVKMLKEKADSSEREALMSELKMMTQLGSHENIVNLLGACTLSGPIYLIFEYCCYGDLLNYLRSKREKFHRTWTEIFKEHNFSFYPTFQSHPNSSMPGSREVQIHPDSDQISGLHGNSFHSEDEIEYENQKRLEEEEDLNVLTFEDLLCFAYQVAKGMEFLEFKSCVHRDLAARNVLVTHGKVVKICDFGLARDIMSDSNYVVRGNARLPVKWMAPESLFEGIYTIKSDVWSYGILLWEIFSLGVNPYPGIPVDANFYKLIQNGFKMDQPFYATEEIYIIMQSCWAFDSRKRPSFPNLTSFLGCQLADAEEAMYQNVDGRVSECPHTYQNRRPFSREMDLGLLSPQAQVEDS
Chain of Histamine H1 receptor (Homo sapiens) (P35367 whole entry): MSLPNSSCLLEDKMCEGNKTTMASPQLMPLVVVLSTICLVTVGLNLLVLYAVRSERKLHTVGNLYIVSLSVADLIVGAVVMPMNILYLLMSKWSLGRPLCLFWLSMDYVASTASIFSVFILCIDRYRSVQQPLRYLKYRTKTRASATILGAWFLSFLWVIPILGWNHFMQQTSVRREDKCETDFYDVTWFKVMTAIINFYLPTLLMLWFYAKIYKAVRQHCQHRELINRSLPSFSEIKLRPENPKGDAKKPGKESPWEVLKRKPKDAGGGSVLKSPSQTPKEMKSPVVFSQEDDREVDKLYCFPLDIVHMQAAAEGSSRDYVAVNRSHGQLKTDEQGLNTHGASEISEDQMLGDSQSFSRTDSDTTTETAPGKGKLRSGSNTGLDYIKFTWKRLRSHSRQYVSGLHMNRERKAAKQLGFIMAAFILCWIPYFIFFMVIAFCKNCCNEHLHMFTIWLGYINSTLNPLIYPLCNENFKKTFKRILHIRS
Chain of MAP kinase-activated protein kinase 2 (Homo sapiens) (P49137 whole entry, looked up): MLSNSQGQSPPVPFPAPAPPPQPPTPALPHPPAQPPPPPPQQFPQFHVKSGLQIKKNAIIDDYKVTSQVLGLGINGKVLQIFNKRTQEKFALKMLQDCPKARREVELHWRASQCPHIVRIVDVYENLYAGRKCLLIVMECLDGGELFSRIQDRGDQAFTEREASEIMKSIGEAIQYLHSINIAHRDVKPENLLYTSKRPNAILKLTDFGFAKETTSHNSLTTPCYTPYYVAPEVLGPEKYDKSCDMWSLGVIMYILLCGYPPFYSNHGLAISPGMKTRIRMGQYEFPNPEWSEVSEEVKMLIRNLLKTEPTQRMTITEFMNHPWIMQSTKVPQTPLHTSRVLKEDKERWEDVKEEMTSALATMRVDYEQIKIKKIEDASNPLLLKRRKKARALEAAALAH
Chain of Dual serine/threonine and tyrosine protein kinase (Homo sapiens) (Q6XUX3 whole entry): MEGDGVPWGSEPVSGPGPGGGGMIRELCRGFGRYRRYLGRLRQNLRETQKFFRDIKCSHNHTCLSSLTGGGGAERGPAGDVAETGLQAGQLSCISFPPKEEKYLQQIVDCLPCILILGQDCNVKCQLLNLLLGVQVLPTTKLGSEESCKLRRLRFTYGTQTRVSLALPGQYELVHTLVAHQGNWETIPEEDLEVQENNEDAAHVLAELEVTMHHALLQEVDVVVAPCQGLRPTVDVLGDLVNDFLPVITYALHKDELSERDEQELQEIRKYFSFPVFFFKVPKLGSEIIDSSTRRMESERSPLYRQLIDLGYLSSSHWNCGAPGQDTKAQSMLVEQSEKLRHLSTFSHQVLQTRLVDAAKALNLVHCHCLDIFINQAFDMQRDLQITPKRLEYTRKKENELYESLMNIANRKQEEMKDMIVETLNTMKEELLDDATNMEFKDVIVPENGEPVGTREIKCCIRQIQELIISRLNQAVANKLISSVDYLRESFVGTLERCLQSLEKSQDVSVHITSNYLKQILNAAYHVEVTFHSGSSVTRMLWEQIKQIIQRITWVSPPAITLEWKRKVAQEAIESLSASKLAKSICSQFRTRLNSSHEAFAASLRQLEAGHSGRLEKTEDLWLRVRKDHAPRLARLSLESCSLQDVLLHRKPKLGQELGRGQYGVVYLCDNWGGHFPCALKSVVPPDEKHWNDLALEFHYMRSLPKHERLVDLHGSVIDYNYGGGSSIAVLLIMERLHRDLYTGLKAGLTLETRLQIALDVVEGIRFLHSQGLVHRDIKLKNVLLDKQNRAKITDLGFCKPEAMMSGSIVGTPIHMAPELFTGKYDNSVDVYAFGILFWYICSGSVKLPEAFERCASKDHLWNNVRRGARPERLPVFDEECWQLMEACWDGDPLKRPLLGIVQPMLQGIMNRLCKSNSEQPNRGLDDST
Chain of Ephrin type-A receptor 3 (Homo sapiens) (P29320 whole entry): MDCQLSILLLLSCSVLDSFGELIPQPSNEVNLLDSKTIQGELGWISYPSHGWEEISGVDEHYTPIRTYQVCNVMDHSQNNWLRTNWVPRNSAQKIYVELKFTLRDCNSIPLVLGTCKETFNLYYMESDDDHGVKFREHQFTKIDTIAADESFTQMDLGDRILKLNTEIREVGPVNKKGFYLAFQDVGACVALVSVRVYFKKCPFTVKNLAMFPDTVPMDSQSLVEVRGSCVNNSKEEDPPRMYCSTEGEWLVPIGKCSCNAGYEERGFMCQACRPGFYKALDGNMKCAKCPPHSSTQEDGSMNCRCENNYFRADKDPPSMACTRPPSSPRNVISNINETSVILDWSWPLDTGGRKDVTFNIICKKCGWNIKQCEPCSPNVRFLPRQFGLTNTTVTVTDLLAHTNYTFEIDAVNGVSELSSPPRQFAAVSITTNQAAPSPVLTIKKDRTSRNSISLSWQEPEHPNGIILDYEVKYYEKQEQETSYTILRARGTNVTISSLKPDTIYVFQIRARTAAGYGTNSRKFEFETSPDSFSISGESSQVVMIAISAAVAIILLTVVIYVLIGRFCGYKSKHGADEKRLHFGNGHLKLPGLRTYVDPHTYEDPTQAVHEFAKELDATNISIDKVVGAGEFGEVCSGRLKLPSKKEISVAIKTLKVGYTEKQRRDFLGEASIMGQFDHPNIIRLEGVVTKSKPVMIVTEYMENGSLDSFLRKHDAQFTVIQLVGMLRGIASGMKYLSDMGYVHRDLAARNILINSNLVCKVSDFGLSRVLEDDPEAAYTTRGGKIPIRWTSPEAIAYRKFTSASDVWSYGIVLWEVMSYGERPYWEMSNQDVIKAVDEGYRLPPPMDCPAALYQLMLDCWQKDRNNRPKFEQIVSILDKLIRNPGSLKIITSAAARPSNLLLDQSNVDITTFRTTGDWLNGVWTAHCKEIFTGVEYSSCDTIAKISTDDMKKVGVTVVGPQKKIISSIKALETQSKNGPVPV
Chain of Sodium-dependent serotonin transporter (Homo sapiens) (P31645 whole entry, looked up): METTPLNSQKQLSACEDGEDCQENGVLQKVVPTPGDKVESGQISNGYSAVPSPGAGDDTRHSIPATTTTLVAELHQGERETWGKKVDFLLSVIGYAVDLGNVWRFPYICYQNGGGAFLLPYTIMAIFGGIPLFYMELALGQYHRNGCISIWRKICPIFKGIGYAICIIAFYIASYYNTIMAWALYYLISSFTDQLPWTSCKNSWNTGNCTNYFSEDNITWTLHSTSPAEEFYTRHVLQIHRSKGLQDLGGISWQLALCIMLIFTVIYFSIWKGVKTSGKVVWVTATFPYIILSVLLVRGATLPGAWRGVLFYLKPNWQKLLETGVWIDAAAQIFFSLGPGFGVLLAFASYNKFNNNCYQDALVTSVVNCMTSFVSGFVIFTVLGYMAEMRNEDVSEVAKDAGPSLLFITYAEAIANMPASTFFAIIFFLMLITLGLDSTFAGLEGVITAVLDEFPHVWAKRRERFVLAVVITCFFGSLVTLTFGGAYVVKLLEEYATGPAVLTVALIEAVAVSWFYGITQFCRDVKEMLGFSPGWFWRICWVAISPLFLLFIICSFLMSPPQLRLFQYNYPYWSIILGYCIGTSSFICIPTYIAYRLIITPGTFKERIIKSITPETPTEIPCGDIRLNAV
Chain of Calcium/calmodulin-dependent protein kinase type II subunit alpha (Homo sapiens) (Q9UQM7 whole entry): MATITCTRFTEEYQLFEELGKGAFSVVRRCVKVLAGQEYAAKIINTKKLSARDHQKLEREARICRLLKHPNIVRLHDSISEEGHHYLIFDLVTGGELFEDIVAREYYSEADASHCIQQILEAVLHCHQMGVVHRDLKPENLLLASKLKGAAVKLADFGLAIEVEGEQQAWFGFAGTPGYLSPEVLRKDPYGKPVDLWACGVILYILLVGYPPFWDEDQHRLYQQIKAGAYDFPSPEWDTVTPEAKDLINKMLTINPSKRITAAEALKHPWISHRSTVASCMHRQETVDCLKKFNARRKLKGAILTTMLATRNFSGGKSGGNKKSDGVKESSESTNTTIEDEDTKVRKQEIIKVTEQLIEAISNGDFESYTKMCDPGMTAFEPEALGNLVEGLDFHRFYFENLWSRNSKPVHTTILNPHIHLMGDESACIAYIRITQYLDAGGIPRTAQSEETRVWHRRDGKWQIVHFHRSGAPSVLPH
Chain of Receptor-type tyrosine-protein kinase FLT3 (Homo sapiens) (P36888 whole entry): as the sequence (P36888 whole entry, looked up, change not shown) above

Compound	residual activity [1]	residual activity [2]	residual activity [3]	residual activity [4]	residual activity [5]	residual activity [6]	residual activity [7]	residual activity [8]	residual activity [9]	residual activity [10]	inhibition [11]	residual activity [12]	residual activity [13]	residual activity [14]	inhibition [15]	residual activity [16]	residual activity [17]	residual activity [18]	residual activity [19]	residual activity [20]	other results
O=C(NCc1ncc(C(F)(F)F)cc1Cl)c1ccc2c(c1)C1(CCS(=O)(=O)CC1)[C@H](C1CC1)N2S(=O)(=O)c1ccc(F)cc1 [BAY-784]	100%	87%	99%	100%	69%	100%	85%	86%	94%	76%	-5.4%	97%	100%	66%	1.57%	100%	92%	100%	96%	91%	residual activity [21]: 100%; inhibition [22]: 24.6%; residual activity [23]: 100%; residual activity [24]: 95%; residual activity [25]: 100%; residual activity [26]: 100%; residual activity [27]: 90%; residual activity [28]: 76%; residual activity [29]: 86%; residual activity [30]: 94%; residual activity [31]: 39%; residual activity [32]: 100%; residual activity [33]: 95%; residual activity [34]: 100%; residual activity [35]: 81%; residual activity [36]: 100%; residual activity [37]: 100%; residual activity [38]: 100%; residual activity [39]: 100%
O=C(NCc1ncc(C(F)(F)F)cc1Cl)c1ccc2c(c1)C1(CCS(=O)(=O)CC1)[C@@H](C1CC1)N2S(=O)(=O)c1ccc(F)cc1 [BAY-786]	100%	71%	83%	100%	86%	81%	100%	98%	87%	78%	-4.88%	96%	100%	88%	-5.22%	100%	100%	100%	100%	84%	residual activity [21]: 93%; inhibition [22]: 8.01%; residual activity [23]: 100%; residual activity [24]: 100%; residual activity [25]: 84%; residual activity [26]: 93%; residual activity [27]: 85%; residual activity [28]: 58%; residual activity [29]: 98%; residual activity [30]: 90%; residual activity [31]: 97%; residual activity [32]: 86%; residual activity [33]: 94%; residual activity [34]: 100%; residual activity [35]: 67%; residual activity [36]: 100%; residual activity [37]: 67%; residual activity [38]: 86%; residual activity [39]: 79%
